Where two headings read alike, the source gives them in different places. Where no end group is shown, it is not given here. [ ]: non-standard residue; d: D form. The star is where a group is joined. hArg = N=C(N)NCCCC[C@H](N)C(=O)O; Hexanoyl = CCCCCC(=O)*; Aib = CC(C)(N)C(=O)O
Key:
human VPAC2 [1] = target: T1, human VPAC2 (Homo sapiens, UniProt P41587); test: Filter binding assay, membranes of stable VPAC2 cell line, 125I-labeled VIP tracer (Table 2); conditions: read-out: Human VPAC2 Receptor Binding
T1 construct: expressed in transfected cells
T1 sequence (P41587 24-438): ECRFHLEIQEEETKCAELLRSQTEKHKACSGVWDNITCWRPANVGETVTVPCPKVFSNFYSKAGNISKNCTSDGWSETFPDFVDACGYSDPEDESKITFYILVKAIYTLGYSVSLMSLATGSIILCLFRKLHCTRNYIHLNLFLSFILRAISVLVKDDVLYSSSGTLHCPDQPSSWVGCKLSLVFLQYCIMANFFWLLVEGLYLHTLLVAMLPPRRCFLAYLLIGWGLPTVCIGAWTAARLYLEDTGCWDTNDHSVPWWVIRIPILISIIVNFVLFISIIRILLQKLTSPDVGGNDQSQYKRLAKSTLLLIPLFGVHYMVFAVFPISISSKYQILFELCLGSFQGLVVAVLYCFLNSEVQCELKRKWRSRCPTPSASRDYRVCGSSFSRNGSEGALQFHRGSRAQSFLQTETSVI
How it was run: (§1)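 Membranes 2.5 μg/well; tracer ~40000 cpm; buffer 25 mM HEPES pH 7.4, 0.5% protease-free BSA; 1 h incubation, shaking. Glass-fibre filtration (0.5% polyethyleneamine presoak, 0.2% BSA block), 3× HEPES wash, dry 1 h at 60° C, scintillation count.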

human VPAC1 [2] = target: T2, human VPAC1 (Homo sapiens, UniProt P32241); test: Filter binding assay, membranes of cells transiently transfected with human VPAC1, 125I-labeled VIP tracer (Table 2); parameters: expressed in transfected cells; conditions: read-out: Human VPAC1 Receptor Binding
T2 sequence (P32241 31-457): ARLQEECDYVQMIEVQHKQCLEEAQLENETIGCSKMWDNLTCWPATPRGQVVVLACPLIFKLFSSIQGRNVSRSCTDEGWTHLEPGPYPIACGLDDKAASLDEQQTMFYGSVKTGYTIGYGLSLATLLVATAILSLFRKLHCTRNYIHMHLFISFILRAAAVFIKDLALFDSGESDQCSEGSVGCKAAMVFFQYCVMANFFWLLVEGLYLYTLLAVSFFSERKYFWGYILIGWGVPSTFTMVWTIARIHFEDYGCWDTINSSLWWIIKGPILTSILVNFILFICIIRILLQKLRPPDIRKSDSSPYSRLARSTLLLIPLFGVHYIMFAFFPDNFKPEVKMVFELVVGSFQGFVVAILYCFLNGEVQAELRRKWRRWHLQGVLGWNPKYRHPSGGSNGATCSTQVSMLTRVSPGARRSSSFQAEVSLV
How it was run: as §1

human PAC1 [3] = target: T3, human PAC1 (Homo sapiens, UniProt P41586); test: DiscoveRx cAMP in vitro potency, CHO-PO cells transiently transfected with human PAC1 receptor; assay type: cell-based; parameters: expressed in transfected cells; host or cells: CHO-PO, transient (Lipofectamine)
T3 sequence (P41586 21-468): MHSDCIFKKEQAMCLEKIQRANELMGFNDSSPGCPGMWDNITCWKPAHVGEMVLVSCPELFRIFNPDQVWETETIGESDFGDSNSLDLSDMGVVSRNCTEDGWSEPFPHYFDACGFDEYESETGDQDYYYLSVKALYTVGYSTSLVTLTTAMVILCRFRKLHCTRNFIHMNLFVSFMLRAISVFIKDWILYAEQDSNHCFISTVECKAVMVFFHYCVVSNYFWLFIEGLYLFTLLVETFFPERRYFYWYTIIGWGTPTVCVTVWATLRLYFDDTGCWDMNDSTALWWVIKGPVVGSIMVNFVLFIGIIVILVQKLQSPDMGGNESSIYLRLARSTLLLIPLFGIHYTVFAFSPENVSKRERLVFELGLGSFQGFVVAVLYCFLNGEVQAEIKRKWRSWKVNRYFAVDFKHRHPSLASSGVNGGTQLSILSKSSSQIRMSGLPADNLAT
Experimental: (§2) Also, the cells are washed twice. The cells are incubated in assay buffer plus IBMX for 15 minutes at room temperature. […] The stimuli are present for 30 minutes. Then, the assay buffer is gently removed. […] At day 3, the assay described above for the VPAC2 receptor cell line is performed.

human VPAC2 [4] = target: T1, human VPAC2; test: DiscoveRx cAMP in vitro potency, CHO-S cell line stably expressing human VPAC2 receptor; assay type: cell-based; conditions: cAMP generation; mean of two independent runs
Experimental: as §2

human VPAC1 [5] = target: T2, human VPAC1; test: DiscoveRx cAMP in vitro potency, CHO-PO cells transiently transfected with human VPAC1 receptor; assay type: cell-based; parameters: expressed in transfected cells; host or cells: CHO-PO, transient (Lipofectamine)
Experimental: as §2

Normal Wistar rats = test: Intravenous glucose tolerance test (IVGTT); assay type: in vivo, rat; conditions: IVGTT, insulin
Experimental: Intravenous glucose tolerance test (IVGTT): Normal Wistar rats are fasted overnight and are anesthetized prior to the experiment. A blood sampling catheter is inserted into the rats. The compound is given in the jugular vein. Blood samples are taken from the carotid artery. A blood sample is drawn immediately prior to the injection of glucose along with the compound. After the initial blood sample, glucose mixed with compound is injected intravenously (i.v.). A glucose challenge of 0.5 g/kg body weight is given, injecting a total of 1.5 mL vehicle with glucose and agonist per kg body weight. The peptide concentration vary to produce the desired dose in μg/kg. Blood samples are drawn at 2, 4, 6 and 10 minutes after giving glucose. The control group of animals receives the same vehicle along with glucose, but with no compound added. In some instances, a 30 minute post-glucose blood sample is drawn. Aprotinin is added to the blood sample (250 kIU/ml blood). The serum is then analyzed for glucose and insulin using standard methodologies.
The assay uses a formulated and calibrated peptide stock in PBS. Normally, this stock is a prediluted 100 μM stock. However, a more concentrated stock with approximately 1 mg agonist per mL is used. The specific concentration is always known. Variability in the maximal response is mostly due to variability in the vehicle dose.

rat VPAC2 receptor = target: T4, rat VPAC2 receptor (Rattus norvegicus, UniProt P35000); test: DiscoveRx in vitro potency, CHO-PO cells transiently transfected with rat VPAC 2 receptor DNA; assay type: cell-based; parameters: expressed in transfected cells; host or cells: CHO-PO, transient
T4 sequence (P35000 23-437): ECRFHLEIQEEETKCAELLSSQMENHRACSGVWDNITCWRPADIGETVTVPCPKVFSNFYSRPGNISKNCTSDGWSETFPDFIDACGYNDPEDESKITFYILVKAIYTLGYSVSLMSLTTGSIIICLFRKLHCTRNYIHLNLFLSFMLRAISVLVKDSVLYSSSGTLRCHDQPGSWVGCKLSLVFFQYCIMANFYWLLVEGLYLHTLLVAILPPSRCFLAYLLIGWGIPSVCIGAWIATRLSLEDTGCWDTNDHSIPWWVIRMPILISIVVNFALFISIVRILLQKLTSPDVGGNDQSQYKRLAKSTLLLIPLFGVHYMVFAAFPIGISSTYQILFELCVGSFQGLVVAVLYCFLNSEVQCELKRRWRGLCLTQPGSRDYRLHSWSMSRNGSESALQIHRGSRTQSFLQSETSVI
Experimental: (§3) Also, the cells are washed twice. […] The stimuli are present for 30 minutes. Then, the assay buffer is gently removed.

human VPAC2 [6] = target: T1, human VPAC2; test: Alpha screen cAMP in vitro potency, human VPAC2 receptor; assay type: cell-based; conditions: cAMP generation; single result from two analyses performed in a single run; read-out: Human VPAC2 Receptor: Alpha Screen EC50
How it was run: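 Stimulated cAMP accumulation is read by AlphaScreen after 60 min exposure of 50,000 non-enzymatically harvested cells to compound, followed by lysis with donor beads.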

human PAC1 [7] = target: T3, human PAC1; test: Filter binding assay, membranes of cells transiently transfected with human PAC1, 125I-labeled PACAP-27 tracer (Table 2); parameters: expressed in transfected cells; conditions: read-out: Human PAC1 Receptor Binding
How it was run: as §1

rat VPAC1 receptor = target: T5, rat VPAC1 receptor (Rattus norvegicus, UniProt P30083); test: DiscoveRx in vitro potency, CHO-PO cells transiently transfected with rat VPAC 1 receptor DNA; assay type: cell-based; parameters: expressed in transfected cells; host or cells: CHO-PO, transient
T5 sequence (P30083 31-459): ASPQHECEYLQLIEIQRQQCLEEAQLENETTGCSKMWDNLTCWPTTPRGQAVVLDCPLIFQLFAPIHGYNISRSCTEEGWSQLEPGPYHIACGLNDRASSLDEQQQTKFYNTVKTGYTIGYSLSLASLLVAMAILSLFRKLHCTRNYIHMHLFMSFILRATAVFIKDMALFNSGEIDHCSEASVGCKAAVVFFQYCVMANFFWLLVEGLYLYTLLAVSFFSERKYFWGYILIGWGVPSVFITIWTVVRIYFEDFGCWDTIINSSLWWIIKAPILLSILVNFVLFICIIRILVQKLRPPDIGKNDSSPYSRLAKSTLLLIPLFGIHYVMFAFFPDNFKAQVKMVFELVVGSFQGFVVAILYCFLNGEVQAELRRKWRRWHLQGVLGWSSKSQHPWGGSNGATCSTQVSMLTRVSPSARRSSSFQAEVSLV
Experimental: as §3

[8] = Rat serum stability studies (remaining active peptide by DiscoveRx cAMP on CHO-VPAC2 cells); assay type: in vitro ADME
How it was run: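 EC50 from a DiscoveRx cAMP read-out on CHO-VPAC2 cells indexes how much peptide stays active after 18 h in rat serum at 37° C without aprotinin, against an aprotinin-protected 4° C aliquot.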

[9] = cAMP generation, mean of two independent runs, read-out: Human PAC1 Receptor: DiscoveRx EC50
[10] = cAMP generation, mean of two independent runs, read-out: Human VPAC1 Receptor: DiscoveRx EC50

Row | Substance | IC50 (human VPAC2 [1]) | IC50 (human VPAC1 [2]) | EC50 (human VPAC2 [4]) | EC50 (human VPAC1 [5]; [10]) | other results
1 | Ac-HSDAVFTDNYTRLRKQVAAKKYLQSIKNKRYGGPSSGAPPPS [Agonist P33] | 2.31 nM | 120 nM | 0.86 nM |  | EC50 (human PAC1 [3]; [9]): 111 nM
2 | H-HSDAVFTDNYTRFRKQVAAKKYLQSIKNKRYGGPSSGAPPPS [Agonist P26] |  |  |  | 0.9 nM | 
3 | H-HSDAVFTDNYTRLRKQVAAKKYLQSI[hArg]NKRYGGPSSGAPPPS [Agonist P22] | 0.87 nM | 123 nM |  | 0.9 nM | 
4 | H-HSDAVFTDNYTRLRKQVAARKYLQSIKNKRYGGPSSGAPPPS [Agonist P20] | 2.5 nM | 98.7 nM | 2.13 nM |  | EC50 (human PAC1 [3]; [9]): > 25 nM
5 | H-HSDAVTTDNYTRLRKQVAAKKYLQSIKNKRYGGPSSGAPPPS [Agonist P65] |  |  | > 1000 nM | > 1000 nM | EC50 (human PAC1 [3]; [9]): 0.7 nM
6 | H-HSDLVFTDNYTRLRKQVAAKKYLQSIKNKRYGGPSSGAPPPS [Agonist P55] |  |  |  | 134 nM | EC50 (human PAC1 [3]; [9]): > 1000 nM
7 | HSDAVFTDNYTRLRKQVAAKKYLQSIKNKIYGGPSSGAPPPS [Agonist P76] |  |  |  | 0.8 nM | 
8 | HSDAVFTDNYTRLRKQVAAKKYLQSIKNKRF [Agonist P34] | 0.92 nM | 79.2 nM |  | 0.8 nM | 
9 | HSDAVFTDNYTRLRKQVAAKKYLQSIRNKRYGGPSSGAPPPS [Agonist P23] | 0.92 nM | 150 nM | 1.41 nM | 0.9 nM | 
10 | HSDAVITDNYTRLRKQVAAKKYLQSIKNKRYGGPSSGAPPPS [Agonist P63] |  |  | > 1000 nM | > 1000 nM | 
11 | HSDAVLTDNYTRLRKQVAAKKYLQSIKNKRYGGPSSGAPPPS [Agonist P64] |  |  | > 1000 nM | 221 nM | 
12 | HSDAVVTDNYTRLRKQVAAKKYLQSIKNKRYGGPSSGAPPPS [Agonist P66] |  |  | > 1000 nM | < 1000 nM | 
13 | HSDVVFTDNYTRLRKQVAAKKYLQSIKNKRYGGPSSGAPPPS [Agonist P53] |  |  |  |  | EC50 (human VPAC1 [5]): 118 nM; EC50 (human PAC1 [3]): > 1000 nM
14 | HVDAVFTDNYTRLRKQVAAKKYLQSIKNKRYGGPSSGAPPPS [Agonist P44] |  |  | 0.92 nM |  | % increase AUC: Dose = 0.1 μg/kg (Normal Wistar rats; 0.1 μg/kg): 19%; % increase AUC: Dose = 10 μg/kg (Normal Wistar rats; 10 μg/kg): 194%
15 | Hexanoyl-HSDAVFTDNYTRLLAKVAAKKYLQSIKNKRYGGPSSGAPPPS [Agonist P135] | 0.43 nM | 251 nM |  |  | EC50 (rat VPAC2 receptor): 0.05 nM; EC50 (human VPAC2 [6]): 0.18 nM; IC50 (human PAC1 [7]): 748 nM; EC50 (rat VPAC1 receptor): 0.02 nM
16 | Hexanoyl-HSDAVFTDNYTRL[Aib]KQVAAK[Aib]YLQSIKNKRYGGPSSGAPPPS [Agonist P244] | 26.9 nM | > 3000 nM |  |  | Rat Serum Stability (Estimated purity in % after 72 hours) [8]: 6.2%; Rat Serum Stability (estimated purity in % after 18 hours) [8]: 30.64%; IC50 (human PAC1 [7]): > 25000 nM; EC50 (rat VPAC1 receptor): 127 nM
17 | Hexanoyl-HSEAVFTENYTRLR[Aib]QVAA[Aib]KYLQSIKNKRYGGPSSGAPPPS [Agonist P314] | 0.57 nM | > 3000 nM |  |  | Rat Serum Stability (estimated purity in % after 18 hours) [8]: 8.44%; EC50 (human VPAC2 [6]): 0.22 nM; IC50 (human PAC1 [7]): > 25000 nM; EC50 (rat VPAC1 receptor): 29.2 nM

Source: patent US20080026996A1, “Selective Vpac2 Receptor Reptide Agonists” (ELI LILLY AND COMPANY, priority 2004, published 2008)
